Activity calls are given as the source filed them. The rule behind the calls is not given here.
Columns and labels:
[1] = system: Human immunodeficiency virus 1; type: functional, organism-based; settings: Human immunodeficiency virus 1, 3B, MT4
[2] = system: Human immunodeficiency virus 1; assay: Antiviral activity against Human immunodeficiency virus 1 Ba-L infected in human PBMCs assessed as inhibition of viral replication; type: functional, organism-based
[3] = system: Human immunodeficiency virus; assay: microbe, parasite or virus in culture; settings: Human immunodeficiency virus 1, MT4
Description: Antiviral activity against vesicular stomatitis virus G-pseudotyped Human immunodeficiency virus infected in human MT-4 cells assessed as inhibition of viral replication

[4] = molecular target: T1, Human immunodeficiency virus type 1 integrase (Human immunodeficiency virus 1, UniProt Q7ZJM1); assay: Displacement of 20 nM [3H]GSK304649 from Human immunodeficiency virus 1 integrase by scintillation proximity assay
T1 sequence (Q7ZJM1 whole entry): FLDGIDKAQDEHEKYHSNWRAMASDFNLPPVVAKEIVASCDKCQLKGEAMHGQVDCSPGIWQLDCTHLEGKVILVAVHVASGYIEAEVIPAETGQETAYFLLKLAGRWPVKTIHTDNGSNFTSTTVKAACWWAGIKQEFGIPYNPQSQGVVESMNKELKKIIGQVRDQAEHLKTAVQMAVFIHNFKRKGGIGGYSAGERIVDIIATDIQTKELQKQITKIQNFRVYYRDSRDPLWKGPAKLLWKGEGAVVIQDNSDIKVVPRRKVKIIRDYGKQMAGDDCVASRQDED

[5] = system: Human immunodeficiency virus 1; type: functional, organism-based; settings: NL432, MT4
[6] = system: Human immunodeficiency virus 1; type: functional, organism-based; settings: NL432, MT4; remark: listed apart in the source
[7] = system: Human immunodeficiency virus 1; type: functional, organism-based; settings: NL432, MT4; remark: listed apart in the source
[8] = molecular target: T1, Human immunodeficiency virus type 1 integrase; assay: Displacement of [3H]GSK304649 from Human immunodeficiency virus 1 integrase by scintillation proximity assay
[9] = system: Human immunodeficiency virus 1; assay: Antiviral activity against Human immunodeficiency virus 1 Ba-L infected in human PBMCs assessed as inhibition of viral replication in presence of human serum; type: functional, organism-based
[10] = system: Human immunodeficiency virus 1; assay: Antiviral activity against RTI-resistant Human immunodeficiency virus 1; type: functional, organism-based
[11] = system: Human immunodeficiency virus 1; assay: Antiviral activity against PI-resistant Human immunodeficiency virus 1; type: functional, organism-based
[12] = system: Human immunodeficiency virus 1; assay: Antiviral activity against INI-resistant Human immunodeficiency virus 1 expressing integrase T66I mutant gene infected in human HeLa-CD4 cells after 3 days; type: functional
[13] = system: Human immunodeficiency virus 1; assay: Antiviral activity against INI-resistant Human immunodeficiency virus 1 expressing integrase E92Q mutant gene infected in human HeLa-CD4 cells after 3 days; type: functional
[14] = system: Human immunodeficiency virus 1; assay: Antiviral activity against INI-resistant Human immunodeficiency virus 1 expressing integrase T124A mutant gene infected in human HeLa-CD4 cells after 3 days; type: functional
[15] = system: Human immunodeficiency virus 1; assay: Antiviral activity against INI-resistant Human immunodeficiency virus 1 expressing integrase P145S mutant gene infected in human HeLa-CD4 cells after 3 days; type: functional
[16] = system: Human immunodeficiency virus 1; assay: Antiviral activity against INI-resistant Human immunodeficiency virus 1 expressing integrase Q146R mutant gene infected in human HeLa-CD4 cells after 3 days; type: functional
[17] = system: Human immunodeficiency virus 1; assay: Antiviral activity against INI-resistant Human immunodeficiency virus 1 expressing integrase S153Y mutant gene infected in human HeLa-CD4 cells after 3 days; type: functional
[18] = system: Human immunodeficiency virus 1; assay: Antiviral activity against INI-resistant Human immunodeficiency virus 1 expressing integrase M154I mutant gene infected in human HeLa-CD4 cells after 3 days; type: functional
[19] = system: Human immunodeficiency virus 1; assay: Antiviral activity against INI-resistant Human immunodeficiency virus 1 expressing integrase T66K mutant gene infected in human HeLa-CD4 cells after 3 days; type: functional, organism-based
[20] = system: Human immunodeficiency virus 1; assay: Antiviral activity against INI-resistant Human immunodeficiency virus 1 expressing integrase F121Y mutant gene infected in human HeLa-CD4 cells after 3 days; type: functional, organism-based
[21] = system: Human immunodeficiency virus 1; assay: Antiviral activity against INI-resistant Human immunodeficiency virus 1 expressing integrase Q148K mutant gene infected in human HeLa-CD4 cells after 3 days; type: functional, organism-based
[22] = system: Human immunodeficiency virus 1; assay: Antiviral activity against INI-resistant Human immunodeficiency virus 1 expressing integrase Q148R mutant gene infected in human HeLa-CD4 cells after 3 days; type: functional, organism-based
[23] = system: Human immunodeficiency virus 1; assay: Antiviral activity against INI-resistant Human immunodeficiency virus 1 expressing integrase N155S mutant gene infected in human HeLa-CD4 cells after 3 days; type: functional, organism-based
[24] = molecular target: T1, Human immunodeficiency virus type 1 integrase; assay: Inhibition of Human immunodeficiency virus 1 integrase by strand transfer scintillation proximity assay

Row | Structure (SMILES) | EC50 [1] [nM] | EC50 [2] [nM] | EC50 [3] [nM] | IC50 [4] [nM] | Activity [5] | Activity [6] | Activity [7] | further results
1 | COc1cc2c(cc1Cc1cccc(Cl)c1F)c(=O)c(C(=O)O)cn2[C@H](CO)C(C)C | 2 | 2 | 1 | – | – | – | – | –
2 | Cc1nnc(C(=O)NC(C)(C)c2nc(C(=O)NCc3ccc(F)cc3)c(O)c(=O)n2C)o1 | 1.8 | 2 | 2 | – | – | – | – | –
3 | O=C(NCc1ccc(F)cc1)c1nc(N2CCCCS2(=O)=O)c2cccnc2c1O | 11 | 3 | 2.2 | 13 | inactive | Dose-dependent effect | Dose-dependent effect | Kd [4]: 3.3 nM
4 | O=C1Nc2ccc(Cl)cc2[C@@](C#CC2CC2)(C(F)(F)F)O1 | – | – | – | – | inactive | Dose-dependent effect | Dose-dependent effect | –
5 | Cn1c(=O)c(C(=O)NCCO)c(O)c2ncc(Cc3ccc(F)cc3)cc21 [GSK-364735] | 5 | 2 | 1.7 | 11 | inactive | Dose-dependent effect | Dose-dependent effect | Kd [8]: 26 nM; EC50 [9]: 42 nM; IC50 [10]: 2.2 nM; IC50 [11]: 2 nM; fold change (FC) [12]: 1.2; fold change (FC) [13]: 3.7; fold change (FC) [14]: 1; fold change (FC) [15]: 1.4; fold change (FC) [16]: 1.7; fold change (FC) [17]: 1.4; fold change (FC) [18]: 0.8; Activity [19]: inactive; Activity [20]: inactive; Activity [21]: inactive; Activity [22]: inactive; Activity [23]: inactive; IC50 [24]: 7.8 nM

— ChEMBL document CHEMBL1255253, “The naphthyridinone GSK364735 is a novel, potent human immunodeficiency virus type 1 integrase inhibitor and antiretroviral” (Antimicrob Agents Chemother, 2008)
